Reference: paper PMC4466525, “Design, Synthesis and Structure-Activity Relationship Studies of Novel Survivin Inhibitors with Potent Anti-Proliferative Properties” (PLoS ONE, 2015)

Tests used:
M14 = experiment: Cell viability (MTS) anti-proliferative assay, M14; type: cell-based; conditions: M14 human melanoma, 48 h treatment, n = 4, read-out: IC50 values ± SEM, M14
Procedure: (§1) The anti-proliferative effect of UC-112 and its analogs were tested in human melanoma (A375, M14 and M14/LCC6MDR1) and human prostate cancer (PC-3) cell lines. All the cell lines were purchased from ATCC (American Type Culture Collection, Manassas, VA). The cancer cells were cultured using the supplemented cell culture medium as described before at 37°C in a humidified atmosphere containing 5% CO2. 5000 cells in logarithm growing phase were seeded overnight into each well of a 96-well plate. Then the cells were continuously incubated with sequential diluted compound solution (10 nM to 100 μM, 100 μl per well) in cell culture medium.

[1] = system: other IAPs (XIAP, cIAP1, cIAP2, livin); experiment: Western blotting of other IAP levels; type: cell-based, human; conditions: 24 h, A375 and PC-3 cells
Procedure: (§2) Lysates of A375 cells treated by the compound solution for 24 h were used to determine the change of IAP protein levels through western blotting. Primary rabbit antibodies against survivin, XIAP, cIAP1, cIAP2, livin and GAPDH were purchased from Cell Signaling Technology, Inc. (Danvers, MA) and used according to manufacture instructions as reported previously. Protein lane intensities were quantified by ImageJ software (US National Institutes of Health, Bethesda, MD).

survivin [2] = biological target: T1, survivin (Homo sapiens, UniProt O15392); experiment: Western blotting of survivin level, A375 cells; type: cell-based
T1 construct: endogenous in cells; host or cells: A375 cells
Procedure: as §2

M14/LCC6MDR1 = experiment: Cell viability (MTS) anti-proliferative assay, multidrug-resistant M14/LCC6MDR1; type: cell-based, human
Procedure: as §1

survivin [3] = biological target: T1, survivin; experiment: Western blotting of survivin level, PC-3 cells; type: cell-based; conditions: gradient increasing dose, 24 h
A375 = experiment: Cell viability (MTS) anti-proliferative assay, A375; type: cell-based; conditions: A-375, A375 human melanoma, 48 h treatment, n = 4, read-out: IC50 values ± SEM, A375
Procedure: as §1

PC-3 = experiment: Cell viability (MTS) anti-proliferative assay, PC-3; type: cell-based; conditions: PC-3 human prostate cancer, 48 h treatment, n = 4, read-out: IC50 values ± SEM, PC-3
Procedure: as §1

T1 sequence (O15392 whole entry): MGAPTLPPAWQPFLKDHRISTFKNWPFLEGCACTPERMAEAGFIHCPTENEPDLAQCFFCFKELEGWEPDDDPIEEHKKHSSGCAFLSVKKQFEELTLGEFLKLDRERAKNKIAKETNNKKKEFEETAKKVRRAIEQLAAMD

IC50 (A375): 900 ± 100 nM
IC50 (PC-3): 900 ± 100 nM
Structure (SMILES): CCc1ccc(COCc2cc(CN3CCCC3)c(O)c3ncccc23)cc1 [4f, 5-(((4-ethylbenzyl)oxy)methyl)-7-(pyrrolidin-1-ylmethyl)quinolin-8-ol]
IC50 (M14): 900 ± 100 nM
Effect on levels of other IAPs [1]: minimally affected
IC50 values for survivin inhibition (survivin [2]; estimated from western blotting, A375 and PC-3 cells): low nanomolar range
Effect on survivin level, A375 (survivin [2]; gradient increasing dose, 24 h, A375 cells): dose-dependently suppressed survivin level
IC50 (M14/LCC6MDR1; Homo sapiens, 48 h, multidrug-resistant M14/LCC6MDR1 melanoma, 48 h treatment, MTS, n = 4, read-out: IC50 values ± SEM, M14/LCC6MDR1): 2700 ± 1000 nM
Resistance Index (M14/LCC6MDR1; IC50 on M14/LCC6MDR1 divided by IC50 on parental M14): 3.0
Effect on survivin level, PC-3 (survivin [3]): dose-dependently suppressed survivin level
